{
  "source": "patent US11072588B2",
  "about": "“Barbituric acid derivatives comprising cationic and lipophilic groups” (UNIVERSITETET I TROMSØ—NORGES ARKTISKE UNIVERSITET, priority 2017, dated 2021)",
  "key": {"[1]": {"test_system": "P. aeruginosa 50692172", "assay": "MIC, multi-resistant clinical isolate", "type": "cell-based, Pseudomonas aeruginosa", "experimental": "(§1) Working solutions of the test derivatives were prepared with up to 100% DMSO and stored at −20° C. If necessary, the solutions were heated to 40-80° C. before testing to facilitate complete dissolution. Double-distilled water was used in all dilutions prepared. […] A microdilution susceptibility test was used for MIC determination according to Clinical and Laboratory Standards Institute, “Methods for Dilution Antimicrobial Sisceptibility Tests for Bacteria That Graw Aerobically”, Approved Standard M07-A9, edition 2012, with modifications as described by Igumnova et al (Bioorg Med Chem, 2016, 24 (22), 5884-5894).\n(§2) Briefly, the bacterial inoculum was adjusted to approximately 2.5-3×10^4 cells/mL in Mueller-Hinton broth (MHB, Difco Laboratories, USA), and incubated in a ratio of 1:1 with test derivatives in polystyrene 96-well flat-bottom microplates (NUNC, Roskilde, Denmark). Positive growth control (without test derivatives) and negative control (without bacteria) were included. The reference antibiotic was oxytetracycline hydrochloride (Sigma Aldrich, Saint Louis, Mo., USA). The microplates were incubated in an EnVision microplate reader (Perkin-Elmer, Turku, Finland) placed in an incubator set to 35° C. for 48 h. The MIC value was defined as the lowest concentration of derivative resulting in no bacterial growth as determined by OD600 measurement. All derivatives were tested in three parallels.\n(§3) The MIC was determined as explained above with some exceptions; working solutions of test derivatives were prepared from concentrated DMSO stocks stored at room temperature, the density of the bacterial inoculum was increased 40× to 1-1.2×10^6 cells/mL, enterococci were incubated in Brain Heart Infusion broth (BHIB, Difco Laboratories, USA), the microplates were incubated for 24 h, and the derivatives were tested in four parallels."}, "[2]": {"test_system": "P. aeruginosa K34-7", "assay": "MIC, multi-resistant clinical isolate", "type": "cell-based, Pseudomonas aeruginosa", "experimental": "as §1, §2, §3"}, "[3]": {"test_system": "P. aeruginosa K44-24", "assay": "MIC, multi-resistant clinical isolate", "type": "cell-based, Pseudomonas aeruginosa", "experimental": "as §1, §2, §3"}, "[4]": {"test_system": "P. aeruginosa K34-73", "assay": "MIC, multi-resistant clinical isolate", "type": "cell-based, Pseudomonas aeruginosa", "experimental": "as §1, §2, §3"}, "[5]": {"test_system": "P. aeruginosa 50692520", "assay": "MIC, multi-resistant clinical isolate", "type": "cell-based, Pseudomonas aeruginosa", "experimental": "as §1, §2, §3"}, "[6]": {"assay": "Determination of haemolytic activity", "type": "cell-based", "conditions": "human red blood cells (washed, from heparinized fresh blood); human RBCs, 1 h, 37° C.; read-out: RBC: haemolytic activity against human RBCs (EC50)", "experimental": "Hemolysis was determined using a heparinized fraction (1000 IU/mL) of freshly drawn blood. Blood collected in EDTA containing test tubes (Vacutest®, KIMA, Arzergrande, Italy) was used for determination of the hematocrit (hct). The heparinized blood was washed 3× with pre-warmed PBS and adjusted to a final hct of 4%. Derivatives in DMSO (50 mM) were added to a 96-well polypropylene V-bottom plate (NUNC, Fisher Scientific, Oslo, Norway) and serially diluted. The test concentration range was 500-4 μM with DMSO contents ≤1%. A solution of 1% triton X-100 was used as positive control for 100% hemolysis. As negative control a solution of 1% DMSO in PBS buffer was included. No signs of DMSO toxicity were detected. RBCs (1% v/v final concentration) were added to the well plate and incubated at 37° C. and 800 rpm for 1 h. After centrifugation (5 min, 3000 g), 100 μL of each well were transferred to a 96-well flat bottom plate and absorbance was measured at 545 nm with a microplate reader (VersaMax™, Molecular Devices, Sunnyvale, Calif., USA). The percentage of hemolysis was calculated as the ratio of the absorbance in the derivative-treated and surfactant treated samples, corrected for the PBS background. Three independent experiments were performed and EC50 values are presented as averages."}, "[7]": {"test_system": "K. pneumoniae 50625602", "assay": "MIC, multi-resistant clinical isolate", "type": "cell-based, Klebsiella pneumoniae", "experimental": "as §1, §2, §3"}, "[8]": {"test_system": "K. pneumoniae 50667959", "assay": "MIC, multi-resistant clinical isolate", "type": "cell-based, Klebsiella pneumoniae", "experimental": "as §1, §2, §3"}, "[9]": {"test_system": "K. pneumoniae K66-45", "assay": "MIC, multi-resistant clinical isolate", "type": "cell-based, Klebsiella pneumoniae", "experimental": "as §1, §2, §3"}, "[10]": {"test_system": "K. pneumoniae 50531633", "assay": "MIC, multi-resistant clinical isolate", "type": "cell-based, Klebsiella pneumoniae", "conditions": "K. pneumoniae 50531633, resistant to colistin", "experimental": "as §1, §2, §3"}, "[11]": {"test_system": "K. pneumoniae K47-25", "assay": "MIC, multi-resistant clinical isolate", "type": "cell-based, Klebsiella pneumoniae", "conditions": "Klebsiella pneumoniae, K4725, 24 h, read-out: Antimicrobial activity (MIC)", "experimental": "as §1, §2, §3"}, "[12]": {"test_system": "S. aureus IHT 99040", "assay": "MIC, multi-resistant clinical isolate", "type": "cell-based, Staphylococcus aureus", "experimental": "as §1, §2, §3"}, "[13]": {"test_system": "S. aureus N315", "assay": "MIC, multi-resistant clinical isolate", "type": "cell-based, Staphylococcus aureus", "experimental": "as §1, §2, §3"}, "[14]": {"test_system": "S. aureus strain WIS", "assay": "MIC, multi-resistant clinical isolate", "type": "cell-based, Staphylococcus aureus", "experimental": "as §1, §2, §3"}, "[15]": {"test_system": "S. aureus strain 85/2082", "assay": "MIC, multi-resistant clinical isolate", "type": "cell-based, Staphylococcus aureus", "experimental": "as §1, §2, §3"}, "[16]": {"test_system": "S. aureus NCTC 10442", "assay": "MIC, multi-resistant clinical isolate", "type": "cell-based, Staphylococcus aureus", "experimental": "as §1, §2, §3"}, "[17]": {"conditions": "Pseudomonas aeruginosa, read-out: Antimicrobial activity (MIC)"}, "[18]": {"conditions": "Klebsiella pneumoniae, read-out: Antimicrobial activity (MIC)"}},
  "data": [
    {"smiles": "NCCCCN1C(=O)N(CCCCN)C(=O)C(Cc2ccc(F)c3ccccc23)(Cc2ccc(F)c3ccccc23)C1=O", "note": "[7(v), 1,3-bis(4-aminobutyl)-5,5-bis((4-fluoronaphtalen-1-yl)methyl)pyrimidin-2,4,6(1H,3H,5H)-trione]", "values": [
      {"measurement": "MIC", "setting": "[1]; [17]", "result": 16, "unit": "µg/mL"},
      {"measurement": "selectivity index (EC50/MIC)", "setting": "[1]; RBC EC50 / MIC", "result": "(10)"},
      {"measurement": "MIC", "setting": "[2]; Pseudomonas aeruginosa, K347, read-out: Antimicrobial activity (MIC)", "result": 32, "unit": "µg/mL"},
      {"measurement": "selectivity index (EC50/MIC)", "setting": "[2]; RBC EC50 / MIC, P. aeruginosa K34-7", "result": "(5)"},
      {"measurement": "MIC", "setting": "[3]; Pseudomonas aeruginosa, K4424, read-out: Antimicrobial activity (MIC)", "result": 32, "unit": "µg/mL"},
      {"measurement": "selectivity index (EC50/MIC)", "setting": "[3]; RBC EC50 / MIC", "result": "(5)"},
      {"measurement": "MIC", "setting": "[4]; Pseudomonas aeruginosa, K3473, read-out: Antimicrobial activity (MIC)", "result": 32, "unit": "µg/mL"},
      {"measurement": "selectivity index (EC50/MIC)", "setting": "[4]; RBC EC50 / MIC, P. aeruginosa K34-73", "result": "(5)"},
      {"measurement": "MIC", "setting": "[5]; [17]", "result": 16, "unit": "µg/mL"},
      {"measurement": "selectivity index (EC50/MIC)", "setting": "[5]; RBC EC50 / MIC", "result": "(10)"},
      {"measurement": "EC50 at 1 h", "setting": "[6]", "result": 160, "unit": "µg/mL"},
      {"measurement": "MIC", "setting": "[7]; [18]", "result": 32, "unit": "µg/mL"},
      {"measurement": "selectivity index (EC50/MIC)", "setting": "[7]; RBC EC50 / MIC", "result": "(5)"},
      {"measurement": "MIC", "setting": "[8]; [18]", "result": 32, "unit": "µg/mL"},
      {"measurement": "selectivity index (EC50/MIC)", "setting": "[8]; RBC EC50 / MIC", "result": "(5)"},
      {"measurement": "MIC", "setting": "[9]; Klebsiella pneumoniae, K6645, read-out: Antimicrobial activity (MIC)", "result": 32, "unit": "µg/mL"},
      {"measurement": "selectivity index (EC50/MIC)", "setting": "[9]; RBC EC50 / MIC, K. pneumoniae K66-45", "result": "(5)"},
      {"measurement": "MIC", "setting": "[10]; Klebsiella pneumoniae, 24 h, read-out: Antimicrobial activity (MIC)", "result": 16, "unit": "µg/mL"},
      {"measurement": "selectivity index (EC50/MIC)", "setting": "[10]; RBC EC50 / MIC", "result": "(10)"},
      {"measurement": "MIC", "setting": "[11]", "result": "> 32", "unit": "µg/mL"},
      {"measurement": "selectivity index (EC50/MIC)", "setting": "[12]; RBC EC50 / MIC", "result": "(20)"},
      {"measurement": "MIC", "setting": "[12]; Staphylococcus aureus, IHT99040, read-out: Antimicrobial activity (MIC)", "result": 8, "unit": "µg/mL"},
      {"measurement": "selectivity index (EC50/MIC)", "setting": "[13]; RBC EC50 / MIC, S. aureus N315", "result": "(20)"},
      {"measurement": "MIC", "setting": "[13]; Staphylococcus aureus, N315, read-out: Antimicrobial activity (MIC)", "result": 8, "unit": "µg/mL"},
      {"measurement": "selectivity index (EC50/MIC)", "setting": "[14]; RBC EC50 / MIC, S. aureus strain WIS", "result": "(20)"},
      {"measurement": "MIC", "setting": "[14]; Staphylococcus aureus, read-out: Antimicrobial activity (MIC)", "result": 8, "unit": "µg/mL"},
      {"measurement": "selectivity index (EC50/MIC)", "setting": "[15]; RBC EC50 / MIC, S. aureus strain 85/2082", "result": "(40)"},
      {"measurement": "MIC", "setting": "[15]; Staphylococcus aureus, 85/2082, read-out: Antimicrobial activity (MIC)", "result": 4, "unit": "µg/mL"},
      {"measurement": "selectivity index (EC50/MIC)", "setting": "[16]; RBC EC50 / MIC, S. aureus NCTC 10442", "result": "(20)"},
      {"measurement": "MIC", "setting": "[16]; Staphylococcus aureus, NCTC10442, read-out: Antimicrobial activity (MIC)", "result": 8, "unit": "µg/mL"}
    ]}
  ]
}
